{"source": "the supplement of paper PMC10307832", "test_in_all_cases": "relative viability (nuclei count vs DMSO), 5 days (fraction); higher = more cells survive", "key": {"Shikonin + Luminespib": {"compound": "CC(C)=CC[C@@H](O)C1=CC(=O)c2c(O)ccc(O)c2C1=O [Shikonin] + CCNC(=O)c1noc(-c2cc(C(C)C)c(O)cc2O)c1-c1ccc(CN2CCOCC2)cc1 [Luminespib] (partner 0.01 µM)", "in_short": "(§1)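 Lung cancer cell lines in 1536-well plates were dosed by pin tool the day after seeding, either with one drug alone or with a fixed anchor-drug dose plus five library-drug doses (not always all listed) in √10 steps. After 5 days, cells were fixed and their nuclei stained in one step (final 0.05% Triton X-100, 1% formaldehyde, 1 ug/ml Hoechst), then counted on 4× images. Relative viability is the nuclei count in treated wells divided by that in vehicle wells. Values are medians of duplicate plates.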"}, "Shikonin + Phenformin": {"compound": "CC(C)=CC[C@@H](O)C1=CC(=O)c2c(O)ccc(O)c2C1=O [Shikonin] + N=C(N)NC(=N)NCCc1ccccc1 [Phenformin] (partner 250 µM)", "in_short": "as §1"}, "[1]": {"compound": "CC(C)N(CCCNC(=O)Nc1ccc(C(C)(C)C)cc1)C[C@H]1O[C@@H](n2ccc3c(N)ncnc32)[C@H](O)[C@@H]1O + CCNC(=O)c1noc(-c2cc(C(C)C)c(O)cc2O)c1-c1ccc(CN2CCOCC2)cc1 [Luminespib] (partner 0.01 µM)", "in_short": "as §1"}, "[2]": {"compound": "CC(C)N(CCCNC(=O)Nc1ccc(C(C)(C)C)cc1)C[C@H]1O[C@@H](n2ccc3c(N)ncnc32)[C@H](O)[C@@H]1O + N=C(N)NC(=N)NCCc1ccccc1 [Phenformin] (partner 250 µM)", "in_short": "as §1"}}, "data": [{"cell line": "UMC-11", "values": [{"measurement": "relative viability", "setting": "Shikonin + Luminespib; first compound 0.01 µM", "value": 0.997}, {"measurement": "relative viability", "setting": "Shikonin + Luminespib; first compound 0.1 µM", "value": 1.05}, {"measurement": "relative viability", "setting": "Shikonin + Luminespib; first compound 0.3162 µM", "value": 0.986}, {"measurement": "relative viability", "setting": "Shikonin + Luminespib; first compound 1 µM", "value": 0.996}, {"measurement": "relative viability", "setting": "Shikonin + Phenformin; first compound 0.01 µM", "value": 0.337}, {"measurement": "relative viability", "setting": "Shikonin + Phenformin; first compound 0.1 µM", "value": 0.329}, {"measurement": "relative viability", "setting": "Shikonin + Phenformin; first compound 0.3162 µM", "value": 0.348}, {"measurement": "relative viability", "setting": "Shikonin + Phenformin; first compound 1 µM", "value": 0.331}, {"measurement": "relative viability", "setting": "[1]; first compound 0.08 µM", "value": 1.01}, {"measurement": "relative viability", "setting": "[1]; first compound 0.253 µM", "value": 0.992}, {"measurement": "relative viability", "setting": "[1]; first compound 0.8 µM", "value": 0.915}, {"measurement": "relative viability", "setting": "[1]; first compound 2.53 µM", "value": 1}, {"measurement": "relative viability", "setting": "[1]; first compound 8 µM", "value": 0.977}, {"measurement": "relative viability", "setting": "[2]; first compound 0.08 µM", "value": 0.321}, {"measurement": "relative viability", "setting": "[2]; first compound 0.253 µM", "value": 0.302}, {"measurement": "relative viability", "setting": "[2]; first compound 0.8 µM", "value": 0.296}, {"measurement": "relative viability", "setting": "[2]; first compound 2.53 µM", "value": 0.349}, {"measurement": "relative viability", "setting": "[2]; first compound 8 µM", "value": 0.322}]}]}
